Test results published in patent US11046714B2, “2,2-difluorodioxolo A2A receptor antagonists” (Merck Sharp & Dohme Corp., priority 2013, dated 2021).

target: human A2A receptor (Homo sapiens (Human), UniProt P29274); assay: competition binding assay using Scintillation Proximity technology; details: membranes from CHO-K1 cells expressing the human A2a receptor; 2.0 nM tritiated compound; Cheng-Prusoff
Experimental: The utility of the compounds in accordance with the present invention as A2A receptor antagonists may be readily determined without undue experimentation by methodologies well known in the art, including by a competition binding assay using Scintillation Proximity technology. Briefly, membranes from CHO-K1 cells expressing the human A2A receptor are incubated with a test compound at various concentrations, e.g., ranging from 3000 nM to 0.15 nM, in a reaction mixture also containing a tritiated form of 5-amino-7-[2-phenethyl]-2-(furan-2-yl)-7H-pyrazolo[4,3-e][1,2,4]triazolo[1,5-c]pyrimidine (the tritiated compound) and wheatgerm agglutin-coated yttrium silicate SPA beads at room temperature. The beads are then allowed to settle to the bottom of the wells, after which the membrane-associated radioactivity is determined by scintillation counting in a microplate reader. Ki values can be determined using the Cheng-Prusoff equation.
Thus, 1.0 μg of membranes from CHO-K1 cells expressing the human A2a receptor were incubated with a compound of the invention at concentrations ranging from 3000 nM to 0.15 nM in a reaction mixture also containing 2.0 nM of a tritiated form of 5-amino-7-[2-phenethyl]-2-(furan-2-yl)-7H-pyrazolo[4,3-e][1,2,4]triazolo[1,5-c]pyrimidine (the tritiated compound) and 100 μg of wheatgerm agglutin-coated yttrium silicate SPA beads for one hour at room temperature with agitation. The beads were then allowed to settle to the bottom of the wells for 1 hr, after which the membrane-associated radioactivity was determined by scintillation counting in a TopCount microplate reader. Ki values were determined using the Cheng-Prusoff equation.
Summary of Materials and Methods Used in A2a Activity Determination:
• Membranes from CHO-K1 cells expressing the human Adenosine2A receptor (Perkin-Elmer #RBHA2AM400UA). • The tritiated compound was prepared according to published methods. • Wheatgerm agglutinin-coated yttrium silicate SPA beads (GE Healthcare #RPNQ0023). Dilute to 25 mg/ml in Assay Buffer. • Assay Buffer: Dulbecco's calcium and magnesium free phosphate buffered saline+10 mM MgCl2 • Adenosine deaminase (ADA) from calf intestine, 10 mg/2 ml (Roche #10 102 105 001). • DMSO • A2a antagonist standard (9-chloro-1-(2-furanyl)-[1,2,4]triazolo[1,5-c]quinazolin-5-amine from Tocris Bioscience) Compound Dilution • Make eight 1:3 serial dilutions in 100% DMSO from a 3 mM compound stock. • Transfer 50 nL of compound into a 384-well OptiPlate (Perkin Elmer). • Typically, final concentrations of compound used in the assay ranged from 3000 nM to 0.152 nM. Radioisotope • Dilute a solution of the tritiated compound to 5.0 nM in assay buffer. This is a 2.5× solution. The final concentration in the assay is 2.0 nM. Calculate the concentration by counting two 5 μL aliquots. Membrane Preparation • Use 1.0 μg of membrane/well. Dilute membranes to 33 μg/mL in assay buffer. Treat with 20 μg/mL ADA for 15 minutes at room temperature to degrade endogenous adenosine. Membrane-Bead Mixture • Use 100 μg/well wheatgerm agglutinin-coated yttrium silicate SPA beads. • Mix ADA-treated membranes and SPA beads together for 30 min prior to assay. Assay Assembly • To the Perkin-Elmer Optiplate-384 containing the compound titration add 20 μL of 2.5× solution of the tritiated compound and 30 μL of the membrane-bead mixture. Incubate for one hour at room temperature with agitation. • Include total binding (assay buffer+1% DMSO) and non-specific binding (CGS 15943, 1 μM) wells. Counting • Allow the beads to settle for one hour. • Count in TopCount. Calculations • A curve fitting program (i.e., Prism, Activity Base, Chemcart) is used to determine the EC50. The Ki value is calculated using the Cheng-Prusoff equation. Ki=EC50/(1+(radioligand concentration/Kd))

human A2A receptor, sequence (P29274 whole entry): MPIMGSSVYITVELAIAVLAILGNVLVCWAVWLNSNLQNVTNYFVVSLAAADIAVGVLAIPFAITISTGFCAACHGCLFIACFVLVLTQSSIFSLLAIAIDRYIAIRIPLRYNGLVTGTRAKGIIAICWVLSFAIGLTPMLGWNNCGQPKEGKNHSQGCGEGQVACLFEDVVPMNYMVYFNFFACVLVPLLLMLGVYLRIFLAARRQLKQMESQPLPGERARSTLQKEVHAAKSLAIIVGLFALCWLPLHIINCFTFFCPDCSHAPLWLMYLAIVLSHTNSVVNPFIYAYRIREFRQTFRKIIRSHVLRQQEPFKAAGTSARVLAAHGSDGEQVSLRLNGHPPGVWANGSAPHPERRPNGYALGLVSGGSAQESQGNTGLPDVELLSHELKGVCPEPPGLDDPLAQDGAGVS

Structure (SMILES) | Ki [nM]
Nc1nc2c3c(ccc2c2nc(CCNC4(C(F)(F)F)CCC4)nn12)OC(F)(F)O3 [Example 58, 2,2-difluoro-8-(2-{[1-(trifluoromethyl)cyclobutyl]-amino}ethyl)[1,3]dioxolo[4,5-h][1,2,4]triazolo[1,5-c]quinazolin-5-amine] | 1
Cc1csc(CN(Cc2nc3c4ccc5c(c4nc(N)n3n2)OC(F)(F)O5)CC2CC2)n1 [Example 127, 8-({(cyclopropylmethyl)[(4-methyl-1,3-thiazol-2-yl)methyl]amino}methyl)-2,2-difluoro[1,3]dioxolo[4,5-h][1,2,4] triazolo[1,5-c]quinazolin-5-amine] | 1.4
Nc1nc2c3c(ccc2c2nc(CCN4CC5CC5C4)nn12)OC(F)(F)O3 (centres unmarked) [Example 35, 8-[2-(3-azabicyclo[3.1.0]hex-3-yl)ethyl]-2,2-difluoro[1,3] dioxolo[4,5-h][1,2,4]triazolo [1,5-c]quinazolin-5-amine] | 3
Nc1nc2c3c(ccc2c2nc(CCN4CCC5(CCNCC5)C4)nn12)OC(F)(F)O3 [Example 53, 8-[2-(2,8-diazaspiro[4.5]dec-2-yl)ethyl]-2,2-difluoro[1,3] dioxolo[4,5-h][1,2,4]triazolo [1,5-c]quinazolin-5-amine] | 39
Cc1nc2c(s1)CN([C@H](C)Cc1nc3c4ccc5c(c4nc(N)n3n1)OC(F)(F)O5)CC2 [Example 80, 2,2-difluoro-8-[(2R)-2-(2-methyl-6,7-dihydro[1,3]thiazolo[5,4-c]pyridin-5(4H)-yl)propyl][1,3] dioxolo[4,5-h][1,2,4]triazolo [1,5-c]quinazolin-5-amine] | 2.6
C[C@H](Cc1nc2c3ccc4c(c3nc(N)n2n1)OC(F)(F)O4)N1CCc2cccnc21 [Example 75, 8-[(2R)-2-(2,3-dihydro-1H-pyrrolo [2,3-b]pyridin-1-yl)propyl]-2,2-difluoro[1,3]dioxolo[4,5-h][1,2,4] triazolo[1,5-c]quinazolin-5-amine] | 4.2
Nc1nc2c3c(ccc2c2nc(CCN4CCCC45CCNCC5)nn12)OC(F)(F)O3 [Example 55, 8-[2-(1,8-diazaspiro[4.5]dec-1-yl)ethyl]-2,2-difluoro[1,3] dioxolo[4,5-h][1,2,4]triazolo [1,5-c]quinazolin-5-amine] | 22
CO[C@@H]1CCCN(CCc2nc3c4ccc5c(c4nc(N)n3n2)OC(F)(F)O5)C1 [Example 40, 2,2-difluoro-8-{2-[(3R)-3-methoxypiperidin-1-yl]ethyl}[1,3]dioxolo[4,5-h][1,2,4]triazolo[1,5-c]quinazolin-5-amine] | 13
Cc1nc2c(s1)CCN(CCc1nc3c4ccc5c(c4nc(N)n3n1)OC(F)(F)O5)C2 [Example 13, 2,2-difluoro-8-[2-(2-methyl-6,7-dihydro[1,3]thiazolo[4,5-c]pyridin-5(4H)-yl)ethyl][1,3] dioxolo[4,5-h][1,2,4]triazolo [1,5-c]quinazolin-5-amine] | 1.8
CC(Cc1nc2c3ccc4c(c3nc(N)n2n1)OC(F)(F)O4)N1Cc2cccnc2C1 (single isomer, unassigned) [Example 91, 8-[(2R or 2S)-2-(5,7-dihydro-6H-pyrrolo[3,4-b]pyridin-6-yl)propyl]-2,2-difluoro[1,3]dioxolo[4,5-h][1,2,4]triazolo[1,5-c]quinazolin-5-amine] | 1.2
Nc1nc2c3c(ccc2c2nc(CN4CCN(c5ccc(F)cc5)CC45CC5)nn12)OC(F)(F)O3 [Example 102, 2,2-difluoro-8-((7-(4-fluorophenyl)-4,7-diazaspiro[2.5]octan-4-yl)methyl)-[1,3]dioxolo[4,5-h][1,2,4]triazolo[1,5-c]quinazolin-5-amine] | 3.5
Nc1nc2c3c(ccc2c2nc(CCN4CCc5nc(C6CC6)oc5C4)nn12)OC(F)(F)O3 [Example 14, 8-[2-(2-cyclopropyl-6,7-dihydro[1,3]oxazolo[5,4-c]pyridin-5(4H)-yl)ethyl]-2,2-difluoro[1,3]dioxolo[4,5-h][1,2,4]triazolo[1,5-c]quinazolin-5-amine] | 0.9
CCc1nnc2n1CCN(CCc1nc3c4ccc5c(c4nc(N)n3n1)OC(F)(F)O5)C2 [Example 10, 8-[2-(3-ethyl-5,6-dihydro[1,2,4]triazolo[4,3-a]pyrazin-7(8H)-yl)ethyl]-2,2-difluoro[1,3]dioxolo[4,5-h][1,2,4]triazolo[1,5-c]quinazolin-5-amine] | 1.6
Cc1cc(C)n(Cc2nc3c4ccc5c(c4nc(N)n3n2)OC(F)(F)O5)n1 [Example 129, 8-[(3,5-dimethyl-1H-pyrazol-1-yl)methyl]-2,2-difluoro[1,3]dioxolo[4,5-h][1,2,4]triazolo[1,5-c]quinazolin-5-amine] | 1
C[C@H](Cc1nc2c3ccc4c(c3nc(N)n2n1)OC(F)(F)O4)N1CCc2nc(C3CC3)oc2C1 [Example 81, 8-[(2R)-2-(2-cyclopropyl-6,7-dihydro [1,3]oxazolo[5,4-c]pyridin-5(4H)-yl)propyl]-2,2-difluoro[1,3] dioxolo[4,5-h][1,2,4]triazolo[1,5-c]quinazolin-5-amine] | 2.4

The remaining lines, values ahead:

Ki [nM] | Structure (SMILES)
24 | CC(c1nc2c3ccc4c(c3nc(N)n2n1)OC(F)(F)O4)N1C[C@H](F)[C@@H](F)C1 (single isomer, unassigned) [Example 134, (R or S)-8-{1-[(3S,4S)-3,4-difluoropyrrolidin-1-yl]ethyl}-2,2-difluoro[1,3]dioxolo[4,5-h][1,2,4]triazolo[1,5-c]quinazolin-5-amine]
1.6 | Nc1nc2c3c(ccc2c2nc(CCN4CC(F)(C5CC5)C4)nn12)OC(F)(F)O3 [Example 18, 8-[2-(3-cyclopropyl-3-fluoroazetidin-1-yl)ethyl]-2,2-difluoro[1,3]dioxolo[4,5-h][1,2,4]triazolo[1,5-c]quinazolin-5-amine]
16 | Nc1nc2c3c(ccc2c2nc([C@H]4CC[C@H](N5CCCC(F)(F)C5)C4)nn12)OC(F)(F)O3 [Example 160, 8-[(1S,3S)-3-(3,3-difluoropiperidin-1-yl)cyclopentyl]-2,2-difluoro[1,3]dioxolo[4,5-h][1,2,4]triazolo[1,5-c]quinazolin-5-amine]
12 | Nc1nc2c3c(ccc2c2nc(CCN4CC(O)(C(F)(F)F)C4)nn12)OC(F)(F)O3 [Example 20, 1-[2-(5-amino-2,2-difluoro [1,3]diozolo[4,5-h][1,2,4]triazolo[1,5-c]quinazolin-8-yl)ethyl]-3-(trifluoromethyl) azetidin-3-ol]
64 | CC(c1nc2c3ccc4c(c3nc(N)n2n1)OC(F)(F)O4)N1C[C@H](F)[C@@H](F)C1 (single isomer, unassigned) [Example 133, (R or S)-8-{1-[(3S,4S)-3,4-difluoropyrrolidin-1-yl]ethyl}-2,2-difluoro[1,3]dioxolo[4,5-h][1,2,4]triazolo[1,5-c]quinazolin-5-amine]
4.3 | CC(Cc1nc2c3ccc4c(c3nc(N)n2n1)OC(F)(F)O4)N1CCCC(F)(F)C1 (single isomer, unassigned) [Example 95, (R or S)-8-[2-(3,3-difluoropiperidin-1-yl)propyl]-2,2-difluoro[1,3] dioxolo[4,5-h][1,2,4]triazolo[1,5-c] quinazolin-5-amine]
56 | CC(c1nc2c3ccc4c(c3nc(N)n2n1)OC(F)(F)O4)N1CC(F)(F)C1 (single isomer, unassigned) [Example 132, (R or S)-8-[1-(3,3-difluoroazetidin-1-yl)ethyl]-2,2-difluoro[1,3]dioxolo [4,5-h][1,2,4]triazolo[1,5-c]quinazolin-5-amine]
1.1 | C[C@@H]1CC(F)(F)CN1CCc1nc2c3ccc4c(c3nc(N)n2n1)OC(F)(F)O4 [Example 25]
